Assay results from PMC4584933, “Establishing the pig as a large animal model for vaccine development against human cancer” (Frontiers in Genetics, 2015).

Columns and labels:
[1] = test system: SLA-1*04:01; assay: Peptide-MHC class I complex stability, scintillation proximity assay (SPA); parameters: species or system pig; details: biotinylated recombinant SLA heavy chain, 125I-β2m, excess unlabeled β2m, read every 40 min, number only if t1/2 ≥ 0.5 h, '-' = not stably binding
Procedure, shortened: (§1)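 Biotinylated recombinant heavy chains captured on streptavidin scintillation plates with 125I-β2m and peptide; signal read every 40 min under dissociating conditions with excess unlabeled β2m. Signal duration gives complex half-life; ≥ 0.5 h counted as stable binder.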

[2] = test system: SLA-2*04:01; assay: as above; parameters: species or system pig; details: biotinylated recombinant SLA heavy chain, 125I-β2m, excess unlabeled β2m, read every 40 min, number only if t1/2 ≥ 0.5 h, '-' = not stably binding
Procedure, shortened: as §1

[3] = test system: PBMCs; assay: In vitro peptide stimulation of porcine PBMCs, IFN-γ release assay (ELISA); type: cell-based, pig; parameters: key to T cell response: “x” indicates that a response was found to this given peptide at least once; details: PBMCs of immunized pigs, 2 × 10^5/well, 5 μg/ml peptide, 67.5–70.0 h, IFN-γ ELISA; response = 2-fold increase vs day -2 and at least 25 pg/ml IFN-γ, found at least once; SLA restriction not included
[4] = test system: SLA-1*07:02; assay: Peptide-MHC class I complex stability, scintillation proximity assay (SPA); parameters: species or system pig; details: biotinylated recombinant SLA heavy chain, 125I-β2m, excess unlabeled β2m, read every 40 min, number only if t1/2 ≥ 0.5 h, '-' = not stably binding
Procedure, shortened: as §1

[5] = test system: SLA-3*04:01; assay: as above; parameters: species or system pig; details: biotinylated recombinant SLA heavy chain, 125I-β2m, excess unlabeled β2m, read every 40 min, number only if t1/2 ≥ 0.5 h, '-' = not stably binding
Procedure, shortened: as §1

Sequence	Binder (t1/2 ≥ 0.5 h): half-life of peptide-SLA-1*04:01 complex [1]	T cell response [3]	Binder (t1/2 ≥ 0.5 h): half-life of peptide-SLA-1*07:02 complex [4]	other results
AIAKNLPEL [IDO2, porcine IDO-derived 9-11mer peptide]	- (t1/2 (hours) is listed for each of the stably binding peptides (t1/2 ≥ 0.5 h))	–	–	–
ALEVFHQIHEY [IDO4, porcine IDO-derived 9-11mer peptide]	- (t1/2 (hours) is listed for each of the stably binding peptides (t1/2 ≥ 0.5 h))	–	–	–
ASAIKVIPTLF [IDO8, porcine IDO-derived 9-11mer peptide]	- (t1/2 (hours) is listed for each of the stably binding peptides (t1/2 ≥ 0.5 h))	–	–	Binder (t1/2 ≥ 0.5 h): half-life of peptide-SLA-2*04:01 complex [2]: - (t1/2 (hours) is listed for each of the stably binding peptides (t1/2 ≥ 0.5 h))
CPNVPIILV [RhoC5, porcine RhoC-derived 9-11mer peptide]	–	x	0.7 h	–
DMANRISAFGY [RhoC8, porcine RhoC-derived 9-11mer peptide]	–	x	- (t1/2 (hours) is listed for each of the stably binding peptides (t1/2 ≥ 0.5 h))	Binder (t1/2 ≥ 0.5 h): half-life of peptide-SLA-2*04:01 complex [2]: 1.1 h
DPSGPMTYKNM [IDO12, porcine IDO-derived 9-11mer peptide]	–	x	0.5 h	–
DTDVILMCF [RhoC10, porcine RhoC-derived 9-11mer peptide]	1.3 h	–	–	–
DYDRLRPLSY [RhoC13, porcine RhoC-derived 9-11mer peptide]	- (t1/2 (hours) is listed for each of the stably binding peptides (t1/2 ≥ 0.5 h))	–	–	–
EVDGKQVEL [RhoC21, porcine RhoC-derived 9-11mer peptide]	- (t1/2 (hours) is listed for each of the stably binding peptides (t1/2 ≥ 0.5 h))	–	–	–
EVDGKQVELAL [RhoC22, porcine RhoC-derived 9-11mer peptide]	0.6 h	–	–	–
EVFHQIHEY [IDO21, porcine IDO-derived 9-11mer peptide]	–	x	10.1 h	Binder (t1/2 ≥ 0.5 h): half-life of peptide-SLA-2*04:01 complex [2]: 23.8 h
GVPSGSAAGF [IDO34, porcine IDO-derived 9-11mer peptide]	- (t1/2 (hours) is listed for each of the stably binding peptides (t1/2 ≥ 0.5 h))	–	–	–
HIDEDLGFAL [IDO35, porcine IDO-derived 9-11mer peptide]	- (t1/2 (hours) is listed for each of the stably binding peptides (t1/2 ≥ 0.5 h))	–	–	–
KKDPSGPMTY [IDO51, porcine IDO-derived 9-11mer peptide]	- (t1/2 (hours) is listed for each of the stably binding peptides (t1/2 ≥ 0.5 h))	–	–	–
KLFFNVLRIY [IDO53, porcine IDO-derived 9-11mer peptide]	–	–	- (t1/2 (hours) is listed for each of the stably binding peptides (t1/2 ≥ 0.5 h))	Binder (t1/2 ≥ 0.5 h): half-life of peptide-SLA-3*04:01 complex [5]: - (t1/2 (hours) is listed for each of the stably binding peptides (t1/2 ≥ 0.5 h))
LPRNIAIPY [IDO70, porcine IDO-derived 9-11mer peptide]	–	x	1.0 h	–
LWDTAGQEDY [RhoC38, porcine RhoC-derived 9-11mer peptide]	- (t1/2 (hours) is listed for each of the stably binding peptides (t1/2 ≥ 0.5 h))	–	–	–
MALDWWSPM [IDO75, porcine IDO-derived 9-11mer peptide]	–	x	0.5 h	Binder (t1/2 ≥ 0.5 h): half-life of peptide-SLA-3*04:01 complex [5]: - (t1/2 (hours) is listed for each of the stably binding peptides (t1/2 ≥ 0.5 h))
MQRLAHLVLGY [IDO79, porcine IDO-derived 9-11mer peptide]	–	–	- (t1/2 (hours) is listed for each of the stably binding peptides (t1/2 ≥ 0.5 h))	Binder (t1/2 ≥ 0.5 h): half-life of peptide-SLA-2*04:01 complex [2]: - (t1/2 (hours) is listed for each of the stably binding peptides (t1/2 ≥ 0.5 h)); Binder (t1/2 ≥ 0.5 h): half-life of peptide-SLA-3*04:01 complex [5]: - (t1/2 (hours) is listed for each of the stably binding peptides (t1/2 ≥ 0.5 h))
MVSLRNYHL [IDO83, porcine IDO-derived 9-11mer peptide]	- (t1/2 (hours) is listed for each of the stably binding peptides (t1/2 ≥ 0.5 h))	–	–	–

Sequence	Binder (t1/2 ≥ 0.5 h): half-life of peptide-SLA-1*04:01 complex [1]	T cell response [3]	Binder (t1/2 ≥ 0.5 h): half-life of peptide-SLA-1*07:02 complex [4]	other results
NPLLSEGLLY [IDO88, porcine IDO-derived 9-11mer peptide]	–	x	24.0 h	–
NSWKIFEEY [IDO89, porcine IDO-derived 9-11mer peptide]	–	–	- (t1/2 (hours) is listed for each of the stably binding peptides (t1/2 ≥ 0.5 h))	Binder (t1/2 ≥ 0.5 h): half-life of peptide-SLA-2*04:01 complex [2]: 0.7 h
PLEELPHPY [IDO94, porcine IDO-derived 9-11mer peptide]	- (t1/2 (hours) is listed for each of the stably binding peptides (t1/2 ≥ 0.5 h))	–	–	–
PMDNSWKIF [IDO96, porcine IDO-derived 9-11mer peptide]	0.7 h	–	–	–
PPAHRNFLH [IDO97, porcine IDO-derived 9-11mer peptide]	–	x	1.1 h	–
PPAHRNFLHSL [IDO98, porcine IDO-derived 9-11mer peptide]	–	x	0.7 h	–
PPILVYADCV [IDO99, porcine IDO-derived 9-11mer peptide]	–	x	3.5 h	–
RGTGGTNVIDF [IDO103, porcine IDO-derived 9-11mer peptide]	- (t1/2 (hours) is listed for each of the stably binding peptides (t1/2 ≥ 0.5 h))	–	–	–
RISAFGYLE [RhoC43, porcine RhoC-derived 9-11mer peptide]	- (t1/2 (hours) is listed for each of the stably binding peptides (t1/2 ≥ 0.5 h))	–	–	–
SIDGLQGHKM [IDO115, porcine IDO-derived 9-11mer peptide]	- (t1/2 (hours) is listed for each of the stably binding peptides (t1/2 ≥ 0.5 h))	–	–	–
SIDSPDSLENI [RhoC47, porcine RhoC-derived 9-11mer peptide]	- (t1/2 (hours) is listed for each of the stably binding peptides (t1/2 ≥ 0.5 h))	–	–	–
SLENIPEKWTP [RhoC50, porcine RhoC-derived 9-11mer peptide]	- (t1/2 (hours) is listed for each of the stably binding peptides (t1/2 ≥ 0.5 h))	–	–	–
SPMDNSWKI [IDO119, porcine IDO-derived 9-11mer peptide]	–	x	1.9 h	–
SPMDNSWKIF [IDO120, porcine IDO-derived 9-11mer peptide]	–	x	2.6 h	–
VPSGSAAGF [IDO128, porcine IDO-derived 9-11mer peptide]	–	–	- (t1/2 (hours) is listed for each of the stably binding peptides (t1/2 ≥ 0.5 h))	Binder (t1/2 ≥ 0.5 h): half-life of peptide-SLA-2*04:01 complex [2]: - (t1/2 (hours) is listed for each of the stably binding peptides (t1/2 ≥ 0.5 h))
YHLQIVTKY [IDO134, porcine IDO-derived 9-11mer peptide]	–	–	- (t1/2 (hours) is listed for each of the stably binding peptides (t1/2 ≥ 0.5 h))	Binder (t1/2 ≥ 0.5 h): half-life of peptide-SLA-2*04:01 complex [2]: - (t1/2 (hours) is listed for each of the stably binding peptides (t1/2 ≥ 0.5 h))
YPDTDVILM [RhoC58, porcine RhoC-derived 9-11mer peptide]	–	x	1.2 h	–
YVDPKLFFNV [IDO135, porcine IDO-derived 9-11mer peptide]	- (t1/2 (hours) is listed for each of the stably binding peptides (t1/2 ≥ 0.5 h))	–	–	–
YVDPKLFFNVL [IDO136, porcine IDO-derived 9-11mer peptide]	- (t1/2 (hours) is listed for each of the stably binding peptides (t1/2 ≥ 0.5 h))	–	–	–
YVPTVFENY [RhoC60, porcine RhoC-derived 9-11mer peptide]	–	–	- (t1/2 (hours) is listed for each of the stably binding peptides (t1/2 ≥ 0.5 h))	Binder (t1/2 ≥ 0.5 h): half-life of peptide-SLA-2*04:01 complex [2]: - (t1/2 (hours) is listed for each of the stably binding peptides (t1/2 ≥ 0.5 h))
